Key:
gedunin signature = assay: Connectivity Map query with the gedunin signature; format: cell-based, human; design: key to gedunin score (connectivity score): connectivity score, based on Kolmogorov-Smirnov statistic; conditions: for gedunin score (connectivity score): enrichment of the gedunin signature (20 μM gedunin at 6 hours, LNCaP) in the compound's Connectivity Map profiles, 6 hr treatment; for connectivity scores for the gedunin signature: multiple instances, gedunin signature from LNCaP, 6 hours; for gedunin rank: rank by gedunin score among 164 Connectivity Map compounds
How it was run: (§1)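 LNCaP cells received celastrol 1.25 μM or gedunin 20 μM for 6 h. Each signature was scored by Kolmogorov–Smirnov-based connectivity against 453 build01 profiles, mostly 6 h treatments of MCF7 cells.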

[1] = test system: androgen signaling signature in LNCaP cells; assay: GE-HTS androgen signaling signature assay / screen; conditions: LNCaP, with and without 12 hours androgen pretreatment
celastrol signature = assay: Connectivity Map query with the celastrol signature; format: cell-based, human; design: key to celastrol score (connectivity score): connectivity score, based on Kolmogorov-Smirnov statistic; conditions: for celastrol score (connectivity score): enrichment of the celastrol signature (1.25 μM celastrol at 6 h, LNCaP) in the compound's Connectivity Map profiles, 6 hr treatment; for celastrol rank: rank by celastrol score among 164 Connectivity Map compounds
How it was run: as §1

[2] = test system: celastrol and gedunin signatures; assay: Connectivity Map query with the celastrol and gedunin signatures (joint); format: cell-based, human; conditions: Connectivity Map profiles, 6 hr
Source text: Indeed, a major challenge in cell-based chemical biology and chemical genomics is the identification of compounds' targets (Gardner et al., 2003). We hypothesized that gene expression signatures could be used to identify compound action based on the similarity of such compound-induced signatures to signatures of existing drugs of known mechanism. We therefore employed a collection of gene expression profiles of drug-treated cell lines that was developed in our lab, termed the Connectivity Map (Lamb et al., 2006). This database comprises 453 genome-wide Affymetrix expression profiles derived from the treatment of human cell lines with 164 small molecules, primarily FDA-approved drugs. A 6 hr treatment time was chosen in an attempt to capture the primary, and potentially mechanistic, effects of the compounds rather than the downstream phenotypic consequences.
In order to use the Connectivity Map to gain insight into celastrol and gedunin function, we first defined a gene expression signature of celastrol and gedunin activity. The expression signatures of celastrol and gedunin were derived by expression profiling of RNA from LNCaP cells treated with celastrol (1.25 μM), gedunin (20 μM), and vehicle (DMSO) for 6 hr; signatures were defined using comparative marker selection to identify transcripts that distinguished between the compound- and vehicle-treated profiles by the signal-to-noise (SNR) metric. The enrichment of these signatures in the gene expression profiles of the Connectivity Map database was then assessed using a gene enrichment metric, the connectivity score, based on the Kolmogorov-Smirnov statistic (Lamb et al., 2003).
The celastrol and gedunin signatures were developed from RMA-processed microarray data from LNCaP cells treated with 1.25 μM celastrol or 20 μM gedunin for 6 hours. Comparative marker selection was used to identify markers that distinguished celastrol- and/or gedunin-treated samples from vehicle-treated samples by the median SNR (Golub et al., 1999). […]

in vitro = conditions: human
[3] = test system: HSP90 interaction with the cochaperone p23; assay: HSP90 coimmunoprecipitation, p23; format: cell-based; conditions: SKBR-3 cells; celastrol 2.5 μM, 12 hr
Experimental: Geldanamycin and other HSP90 inhibitors are known to inhibit p23 association with HSP90 (Felts et al., 2003).
SKBR-3 cells were treated with vehicle, celastrol (2.5 μM, 12 hr), and PU24FCI (20 μM, 24 hr) (Vilenchik et al., 2004). Cells were lysed in 20 mM Tris HCl (pH 7.4), 25 mM NaCl, 2 mM DDT, 20 mM Na2MoO4, 0.1% NP-40, and […]. Lysates were incubated for 2 hr at 4° C., rotating, and then centrifuged at 13,000×g for 10 min. Protein (500 μg) was incubated with H9010 anti-HSP90 antibody for 1 hr at 4° C., rotating. Protein G agarose (30 μl; Upstate) was added to each sample, and samples were then incubated for 1 hr at 4° C., rotating. The beads were washed five times with 1 ml lysis buffer. Bound proteins were isolated by boiling in sample buffer. The levels of HSP90 and coimmunoprecipitating proteins were analyzed by western blot.

HSP90α = HSP90α (Homo sapiens, UniProt P07900); assay: Geldanamycin competition assay (Cy3B-geldanamycin fluorescence polarization); format: binding; design: purchased Stressgen SPP776 / SPP-776; conditions: celastrol and gedunin at concentrations up to ~100 μM
Experimental: We first tested whether celastrol or gedunin could compete with Cy3B-geldanamycin for binding to the ATP-binding pocket of purified HSP90α by fluorescence polarization assay (Kim et al., 2004, Llauger-Bufi et al., 2003).
The geldanamycin competition assay was performed as described (He et al., 2006, Kim et al., 2004), except that Cy3B-geldanamycin rather than BODIPY-geldanamycin was used as described herein.
Measurements were taken in black 96-well microtiter plates (Coming #3650). The assay buffer (HFB) contained 20 mM HEPES (K) pH 7.3, 50 mM KCl, 5 mM MgCl2, 20 mM Na2MoO4, 0.01% NP40. Before each use, 0.1 mg/mL bovine gamma globulin (BGG) (Panvera Corporation, Madison, Wis.) and 2 mM DTT (Fisher Biotech, Fair Lawn, N.J.) were freshly added. GM-cy3B was synthesized as previously reported and was dissolved in DMSO to form 10 μM solutions. Cell lysates were prepared rupturing cellular membranes by freezing at −70° C. and dissolving the cellular extract in HFB with added protease and phosphotase inhibitors. Saturation curves were recorded in which GM-cy3B (3 nM) was treated with increasing amounts of cellular lysates.

| Structure (SMILES) | gedunin score (connectivity score) (gedunin signature) | connectivity scores for the gedunin signature (gedunin signature) | gedunin rank (gedunin signature) | effect on the GE-HTS androgen signaling signature outside the screen [1] | celastrol score (connectivity score) (celastrol signature) | celastrol rank (celastrol signature) | similarity of gene expression profile to the celastrol and gedunin signatures [2] | viability (in vitro) [%] | HSP90 interaction with cochaperone p23 (coimmunoprecipitation) [3] | competition with Cy3B-geldanamycin for binding to the ATP-binding pocket of HSP90α (HSP90α) |
| --- | --- | --- | --- | --- | --- | --- | --- | --- | --- | --- |
| C=CCNC1=C2C[C@@H](C)C[C@H](OC)[C@H](O)[C@@H](C)/C=C(\C)[C@H](OC(N)=O)[C@@H](OC)/C=C\C=C(/C)C(=O)NC(=CC1=O)C2=O [17-AAG, 17-allylamino-geldanamycin, reference compound] | 0.702 | High connectivity scores | 6 | suppressed the androgen signaling signature | 0.736 | 8 | very strong similarity | – | – | – |
| CO[C@H]1/C=C\C=C(/C)C(=O)NC2=CC(=O)C(NCCN(C)C)=C(C[C@@H](C)C[C@H](OC)[C@H](O)[C@@H](C)/C=C(\C)[C@@H]1OC(N)=O)C2=O [17-DMAG, 17-dimethylaminoethylamino-17-demethoxy-geldanamycin, reference compound] | 0.73 | High connectivity scores | 5 | – | 0.766 | 6 | very strong similarity | – | – | – |
| CO[C@H]1C[C@H](O[C@@H]2/C(C)=C/C[C@@H]3C[C@@H](C[C@]4(CC[C@H](C)[C@@H](C5CCCCC5)O4)O3)OC(=O)[C@@H]3C=C(C)/C(=N/O)[C@H]4OC/C(=C\C=C\[C@@H]2C)[C@]43O)O[C@@H](C)[C@@H]1O [selamectin] | – | – | – | – | – | – | – | 81.1 | – | – |
| C[C@@H]1C[C@H]2O[C@@H]2/C=C\C=C\C(=O)Cc2c(Cl)c(O)cc(O)c2C(=O)O1 [monorden, reference compound] | 0.511 | – | – | – | 0.409 | – | very strong similarity | – | – | – |
| CC(C)NCCCn1c(Sc2cc3c(cc2I)OCO3)nc2c(N)ncnc21 [PU-H71, reference compound] | – | – | – | – | – | – | – | – | had the same effect | competed with geldanamycin binding at low concentrations |
